From patent US7056884B2, “Reduced FK228 and use thereof” (Astellas Pharma Inc., priority 2000, dated 2006) come the findings set out here.

This assay has as its system Mouse histone deacetylase. Put plainly: Assay of histone deacetylase activity ([3H] acetylated histone, crude histone deacetylase from FM3A cells). The note with it: crude histone deacetylase fraction from FM3A cells, [3H] acetylated histone substrate, 37° C. for 10 min. The format is biochemical. As for the experimental part: The histone deacetylase inhibitory activity of the FR135313 substance synthesized in Production Example 1 was examined.
Mouse breast cancer FM3A was supplied by Dr. Dai Ayusawa of Medical Department, Yokohama City University. This cell was subcultured in an ES medium containing 2% FBS (Flow Laboratories, hereinafter to be referred to as ES medium) at 37° C., in 5% CO2.
The [^3H] acetylated histone to be the substrate of histone deacetylase was prepared by culturing 1×10^8 cells of FM3A cell (suspended in 50 ml of ES medium) in the presence of 0.5 mCi/ml [^3H] sodium acetate and 5 mM sodium butyrate at 37° C. in 5% CO2 for 30 min, and immediately extracting histone fraction from the treated cells according to the following method. The specific radioactivity was 0.45 μCi/mg histone.
Extraction of histone protein from culture cell was conducted according to the method of Yoshida et al. (M. Yoshida et al., J. Biol. Chem. 265, 17174–17179 (1990)). […]
4 μl of [^3H] acetylated histone (2500 cpm/5 μg) and 96 μl of crude histone deacetylase fraction were admixed. […] The reaction was terminated by the addition of 10 μl of concentrated hydrochloric acid, and released [^3H] acetic acid was extracted with 1 ml of ethyl acetate, from which 0.9 ml was added to 5 ml of toluene scintillation solution and the radioactivity was measured.

SMILES strings stand for the structures.

With `C/C=C1\NC(=O)[C@@H](CS)NC(=O)[C@@H](C(C)C)NC(=O)C[C@@H](/C=C/CCS)OC(=O)[C@H](C(C)C)NC1=O` [FR135313 substance], the “histone deacetylase inhibitory activity IC50” value is “not more than 1 ng/ml”.
